Measurements taken from US20120027753A1, “MicroRNAs in Never-Smokers and Related Materials and Methods” (THE OHIO STATE UNIVERSITY, priority 2009, published 2012).

Legend:
Assay type in all cases: cell-based, human
miR-21 in H3255 cells = test: qRT-PCR of miR-21 after anti-miR-21 transfection, H3255; details: H3255, 40 nM, 72 h, vs anti-EGFP control
Protocol: (§1) FIG. 3A: Cells were transfected with 40 nM of anti-miR-21 (+) or control oligonucleotide (anti-EGFP) (−) for 72 h and examined by qRT-PCR. The expression levels of miR-21 after transfection of anti-miR-21 were expressed as the relative values to control. Data were mean±SD from three independent experiments. *, p<0.05, paired t-test.
(§2) Expression of mature miRs was examined using qRT-PCR analysis using a TaqMan Human MicroRNA Assay kit (Applied Biosystems, Foster City, Calif.). RNU6B was used as an endogenous control (#4373381, Applied Biosystems). Reactions were performed using a PRISM 7700 Sequence Detector System (Applied Biosystems). Gene expression was quantified and values were reported as 2-ΔΔCT. Data were presented as mean±SD from triplicate.
(§3) 2′-O-methyl oligonucleotides were chemically synthesized at Integrated DNA Technologies (Coralville, Iowa). […] Activities of caspase-3 and caspase-7 were analyzed using ApoONE Homogeneous Caspase 3/7 Assay (Promega) according to the manufacturer's instructions. Samples were measured after 6 h of incubation with the caspase substrate on a fluorescent plate reader using wavelengths of 485 and 535 nm for excitation and emission, respectively. […]

miR-21 in H441 cells = test: qRT-PCR of miR-21 after anti-miR-21 transfection, H441; details: H441, 40 nM, 72 h, vs anti-EGFP control
Protocol: as §1, §2, §3

[1] = test system: H3255 cells (caspase-3 and caspase-7 activities); test: ApoONE caspase 3/7 apoptosis assay, H3255
Protocol: (§4) FIGS. 3B-3C: Cells (H3255 or H441) were transfected with 40 nM of anti-miR-21 (+) or anti-EGFP (−) for 72 h and then grown in the presence or absence of 0.2 μM of AG1478 for 24 h (H3255) or 10 μM for 72 h (H441). The activities of caspase 3/7 were expressed as the relative values to the activities of cells without anti-miR-21 and AG1478. Data were mean±SD from at least four independent experiments. *, p<0.05, Student t-test.
(§5) 2′-O-methyl oligonucleotides were chemically synthesized at Integrated DNA Technologies (Coralville, Iowa). 2′-O-methyl oligonucleotides had the following sequences: 2′OMe-enhanced green fluorescent protein (EGFP) (anti-EGFP) 5′-AAGGCAAGCUGACCCUGAAGU-3′ [SEQ ID NO:1] and 2′OMe-miR-21 (anti-miR-21) 5′-UCA ACA UCA GUC UGA UAA GCUA-3′ [SEQ ID NO:2]. H441 and H3255 cells were plated in triplicate in 96-well plates. Cells were transfected using LipofectAMINE 2000 reagent (Invitrogen) 24 h after plating. […] Activities of caspase-3 and caspase-7 were analyzed using ApoONE Homogeneous Caspase 3/7 Assay (Promega) according to the manufacturer's instructions. Samples were measured after 6 h of incubation with the caspase substrate on a fluorescent plate reader using wavelengths of 485 and 535 nm for excitation and emission, respectively. […]

[2] = test system: H441 cells (caspase-3 and caspase-7 activities); test: ApoONE caspase 3/7 apoptosis assay, H441
Protocol: as §4, §5

[3] = test system: uncleaved PARP in H3255 cells; test: Western blot of uncleaved PARP, H3255; details: H3255, both anti-miR-21 and AG1478 (2 μM, 72 h)
Protocol: (§6) FIG. 3D: Uncleaved PARP was evaluated by Western blot. Cells were transfected with anti-miR-21 or anti-EGFP as above and then grown in the presence or absence of 2 μM of AG1478 for 72 h. β-actin was a loading control.
(§7) Cells were lysed in buffer containing 50 mM Tris-HCl, pH 7.6, 150 mM NaCl, 0.1% sodium dodecyl sulfate, 1% Nonidet P-40, and 0.5% sodium-deoxycholate. The lysates were kept on ice for 30 min, and then centrifuged at 13000 g for 30 min. The supernatant was collected and then 10 μg of protein were separated by gel electrophoresis on 10% gels, transferred to nitrocellulose membranes and detected by immunoblotting using a chemiluminescence system (GE Healthcare Bio-Sciences Corp, Piscataway, N.J.). The images were quantified by measuring signal intensity using NIH ImageJ1.40g (rsb.info.nih.gov/ij/). The antibodies detecting EGFR, phospho-EGFR (Tyr1173), phospho-Akt (Ser473), PARP and β-actin were purchased from Cell Signaling Technology (Beverley, Mass.).

[4] = test system: uncleaved PARP in H441 cells; test: Western blot of uncleaved PARP, H441; details: H441, anti-miR-21 in the presence or absence of AG1478 (2 μM, 72 h)
Protocol: as §6, §7

[5] = test system: miR-21 expression in H3255 cells; test: qRT-PCR of miR-21 expression after AG1478/EGF treatment, H3255; details: for miR-21 expression levels: AG1478 2 μM or 10 μM
Protocol: (§8) FIGS. 2A-2B: AG1478 represses miR-21 expression. H3255 lung adenocarcinoma cells, characterized by a high expression of miR-21 and EGFR mutation, were serum-starved for 24 h and then grown in either the presence or absence of AG1478 (2 μM or 10 μM) for 2 h with or without following exposure to 20 ng/ml of EGF for 15 min.
FIG. 2B: MiR-21 expression levels analyzed by qRT-PCR after the AG1478 treatments (2 μM or 10 μM) with or without EGF ligand stimulation. MiR-21 expression levels were expressed as the relative values to untreated cells in the absence of EGF. Data were mean±SD from four independent experiments. *, p<0.05, paired t-test.
as §2
(§9) AG1478 was purchased from Calbiochem (San Diego, Calif.). Epidermal growth factor (EGF) was purchased from Promega (Madison, Wis.). To evaluate the effect of AG1478 on the EGFR signaling pathway and miR-21 expression levels, lung cancer cell lines were serum-starved for 24 h, incubated in the presence or absence of AG1478 (2 μM or 10 μM) for 2 h, and then for an additional 15 min in the presence or absence of EGF (20 ng/ml).

[6] = test system: H3255 lung adenocarcinoma cells (EGFR mutant L858R); test: MTS growth inhibition assay, H3255; details: 72 h, read-out: IC50 (half maximal inhibitory concentration), cell growth
From the text: (§10) Six lung adenocarcinoma cell lines (A549, H23, H441, H1650, H1975 and H3255), one squamous cell line (H157) and one large cell carcinoma cell line (H1299) were used in this study. H3255 was provided by National Cancer Institute and maintained in ACL-4 medium (GIBCO) with 5% fetal bovine serum (GIBCO). A549, H23, H441, H1650, H1975, H157 and H1299 were purchased from American Type Culture Collection (ATCC) and maintained in RPMI 1640 (GIBCO) with 10% fetal bovine serum. hTERT-immortalized normal human bronchial epithelial cells (HBET2) were established.
(§11) Growth inhibition was assessed by MTS assay (Dojindo, Japan) to examine the effect of AG1478 on lung cancer cell lines. Cell suspensions (5,000 cells/well) were seeded into 96-well plates and increasing concentrations of AG1478 (0, 0.4, 2.0, 10 and 50 μM) were added. After incubation for 72 h at 37° C., MTS [3-(4,5-dimethylthiazol-2-yl)-5-(3-carboxymethoxyphenyl)-2-(4-sulfophenyl) 2H-tetrazolium, inner salt] was added to each well and incubated for 2 h at 37° C., and then absorbance was measured using a microplate reader with a test wavelength of 450 nm. The IC50 value was defined as the concentration needed for 50% reduction of the growth by treatment with AG1478. Each experiment was done at least in triplicate, and four times independently. The data were shown as mean±SD.

[7] = test system: H441 lung adenocarcinoma cells (EGFR wild-type); test: MTS growth inhibition assay, H441; details: 72 h, read-out: IC50 (half maximal inhibitory concentration), cell growth
From the text: as §10, §11

[8] = test system: H1650 lung adenocarcinoma cells (EGFR mutant ΔE746-A750); test: MTS growth inhibition assay, H1650
From the text: as §10, §11

[9] = test system: A549 lung adenocarcinoma cells (EGFR wild-type); test: MTS growth inhibition assay, A549
From the text: as §10, §11

[10] = test system: H1975 lung adenocarcinoma cells (EGFR mutant L858R and T790M); test: MTS growth inhibition assay, H1975
From the text: as §10, §11

[11] = test system: EGFR signaling (phospho-EGFR, phospho-Akt) in H3255 cells; test: Western blot of p-EGFR and p-Akt after AG1478 treatment, H3255; details: H3255, AG1478 at either 2 μM or 10 μM for 2 h, with or without EGF 20 ng/ml
Protocol: as §8
FIG. 2A: The effect of AG1478 on phospho-EGFR (p-EGFR) and phospho-Akt (p-Akt) expression. β-actin was a loading control.
as §9
as §7, with “The lysates were kept on ice for 30 min, and then centrifuged at 13000 g for 30 min.” left out, “The antibodies detecting EGFR, phospho-EGFR (Tyr1173), phospho-Akt (Ser473), PARP and β-actin were purchased from Cell Signaling Technology (Beverley, Mass.).” left out

[12] = test system: miR-21 expression in H441 cells; test: qRT-PCR of miR-21 expression after AG1478 treatment, H441; details: H441, AG1478 at 10 μM, absence of EGF, p<0.05
Protocol: FIG. 7: AG1478 represses miR-21 expression in H441 lung adenocarcinoma cells. MiR-21 expression levels were analyzed by qRT-PCR after the AG1478 treatments (2 μM or 10 μM) in the absence of EGF and expressed relative to untreated cells. Data were mean±SD from triplicate. *, p<0.05, paired t-test.
as §2, §9

For “anti-miR-21: 2′-O-methyl antisense oligonucleotide targeting miR-21, 5′-UCA ACA UCA GUC UGA UAA GCUA-3′ [SEQ ID NO:2] (antisense UCAACAUCAGUCUGAUAAGCUA; all 2'-O-methyl, backbone not given here)”, the “miR-21 expression after antisense transfection” value (miR-21 in H3255 cells) was “repression of miR-21 in these cells was confirmed”, the “miR-21 expression after antisense transfection” value (miR-21 in H441 cells) was “repression of miR-21 in these cells was confirmed” and the “apoptosis (caspase 3/7 activities)” value ([1]; H3255, anti-miR-21 40 nM alone) was “did not induce apoptosis”. The “apoptosis (caspase 3/7 activities)” value ([1]; H3255, anti-miR-21 40 nM in combination with AG1478 at 0.2 μM for 24 h) was “significantly enhanced AG1478-induced apoptotic response”, the “apoptosis (caspase 3/7 activities)” value ([2]; H441, anti-miR-21 40 nM alone) was “significant increase in apoptotic response” and the “apoptosis (caspase 3/7 activities)” value ([2]; H441, anti-miR-21 40 nM in combination with 10 μM AG1478 for 72 h) was “further enhanced apoptotic response”. The “amounts of uncleaved PARP” value [3] was “markedly decreased” and the “amounts of uncleaved PARP” value [4] was “markedly decreased”.

With “EGF: Epidermal growth factor (EGF) ligand, purchased from Promega” the “upregulation of miR-21 expression” value ([5]; H3255, serum-starved, EGF 20 ng/ml for 15 min, relative to untreated cells) was roughly 2.5 fold.

With `COc1cc2ncnc(Nc3cccc(Cl)c3)c2cc1OC` [AG1478] the IC50 [6] was 300 nM, the IC50 [7] was 10 µM and the cell proliferation [8] was “inhibited cell proliferation”. The cell proliferation [9] was “inhibited cell proliferation”, the cell proliferation [10] was “inhibited cell proliferation” and the “EGFR signaling (p-EGFR and p-Akt)” value [11] was “effectively inhibited the EGFR signaling”. The miR-21 expression levels ([5]; H3255, absence of EGF, p<0.01) was “significantly repressed”, the miR-21 expression levels ([5]; H3255, with EGF 20 ng/ml, p<0.05) was “inhibited back to the basal levels” and the miR-21 expression [12] was “significantly repressed miR-21 expression”.
